From article PMC11014985, “TCTP regulates genotoxic stress and tumorigenicity via intercellular vesicular signaling” (EMBO Reports, 2024)

Target: T1, recombinant human TCTP (Homo sapiens, UniProt P13693)
T1 construct: gene TPT1; recombinant; RED-NHS fluorescently labelled for MST
T1 sequence (P13693 1-172): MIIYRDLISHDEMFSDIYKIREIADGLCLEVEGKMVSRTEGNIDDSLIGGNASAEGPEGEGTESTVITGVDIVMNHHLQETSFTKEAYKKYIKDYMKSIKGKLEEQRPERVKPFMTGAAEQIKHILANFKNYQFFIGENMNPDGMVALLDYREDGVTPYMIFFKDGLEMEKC
Experiment: microscale thermophoresis
Type: binding

Kd [µM]	SMILES
5.39 ± 2.1	CSc1ccc2c(c1)N(CCC1CCCCN1C)c1ccccc1S2 (centres unmarked) [thioridazine]
15.4 ± 1.4	CN[C@H]1CC[C@@H](c2ccc(Cl)c(Cl)c2)c2ccccc21 [sertraline]
